Reference: patent US7741368B2, “Approach to antimicrobial host defense with molecular shields with EPA and DHA analogs” (The Brigham and Women's Hospital, Inc., priority 2001, dated 2010)

System: BPI
Conditions: confluent Caco2 intestinal epithelial monolayers, 1 μM, 24 hr, β actin internal standard (FIG. 5)

For CC[C@@H](O)/C=C/C=C\C[C@@H](O)/C=C/C=C/C=C\[C@@H](O)CCCC(=O)O [5S,12R,18R-tri-HEPE], which “fold induction of BPI mRNA” value is on record?
Its value is “BPI induction”.
